Laboratory results published in the NIST ThermoML archive (doi:10.1016/j.fluid.2016.02.031).
± gives the expanded uncertainty stated by the source.

Test: xn = mol fraction of the nth substance listed
Conditions: 100 kPa, Liquid; for viscosity: Concentric cylinders viscometry; for mass density: Vibrating tube method

OCCCO [propan-1,3-diol] + CCC(C)=O
Conditions	mass density [kg/m3]	viscosity [mPa·s]
288.15 K, x1 = 0.1052	834.263 ± 0.2	0.5783 ± 0.0079
288.15 K, x1 = 0.2004	855.981 ± 0.2	0.8238 ± 0.01
288.15 K, x1 = 0.3002	879.545 ± 0.2	1.258 ± 0.015
288.15 K, x1 = 0.4003	904.311 ± 0.2	2.132 ± 0.024
288.15 K, x1 = 0.4999	929.443 ± 0.19	3.633 ± 0.04
288.15 K, x1 = 0.5992	954.483 ± 0.19	6.313 ± 0.069
288.15 K, x1 = 0.6992	979.932 ± 0.18	11.18 ± 0.12
288.15 K, x1 = 0.7989	1003.76 ± 0.18	20.31 ± 0.22
288.15 K, x1 = 0.8998	1028.39 ± 0.19	37.46 ± 0.41
288.15 K, x1 = 1	1055.96 ± 0.19	68.06 ± 0.75
293.15 K, x1 = 0.1052	829.229 ± 0.21	0.5513 ± 0.0076
293.15 K, x1 = 0.2004	851.106 ± 0.2	0.7652 ± 0.0097
293.15 K, x1 = 0.3002	874.858 ± 0.2	1.144 ± 0.014
293.15 K, x1 = 0.4003	899.864 ± 0.2	1.889 ± 0.022
293.15 K, x1 = 0.4999	925.2 ± 0.19	3.143 ± 0.035
293.15 K, x1 = 0.5992	950.438 ± 0.19	5.35 ± 0.059
293.15 K, x1 = 0.6992	976.1 ± 0.19	9.291 ± 0.1
293.15 K, x1 = 0.7989	1000.12 ± 0.18	16.48 ± 0.18
293.15 K, x1 = 0.8998	1024.96 ± 0.19	29.8 ± 0.32
293.15 K, x1 = 1	1052.87 ± 0.19	52.75 ± 0.55
298.15 K, x1 = 0.1052	824.172 ± 0.21	0.5185 ± 0.0073
298.15 K, x1 = 0.2004	846.22 ± 0.2	0.714 ± 0.0092
298.15 K, x1 = 0.3002	870.166 ± 0.2	1.046 ± 0.013
298.15 K, x1 = 0.4003	895.391 ± 0.2	1.688 ± 0.019
298.15 K, x1 = 0.4999	920.936 ± 0.19	2.744 ± 0.031
298.15 K, x1 = 0.5992	946.376 ± 0.19	4.578 ± 0.05
298.15 K, x1 = 0.6992	972.256 ± 0.19	7.804 ± 0.085
298.15 K, x1 = 0.7989	996.448 ± 0.18	13.57 ± 0.15
298.15 K, x1 = 0.8998	1021.51 ± 0.19	24.01 ± 0.26
298.15 K, x1 = 1	1049.76 ± 0.19	41.97 ± 0.45
303.15 K, x1 = 0.1052	819.09 ± 0.21	0.4891 ± 0.007
303.15 K, x1 = 0.2004	841.328 ± 0.2	0.6674 ± 0.0088
303.15 K, x1 = 0.3002	865.461 ± 0.2	0.9604 ± 0.012
303.15 K, x1 = 0.4003	890.9 ± 0.2	1.517 ± 0.018
303.15 K, x1 = 0.4999	916.653 ± 0.19	2.414 ± 0.027
303.15 K, x1 = 0.5992	942.296 ± 0.19	3.957 ± 0.044
303.15 K, x1 = 0.6992	968.392 ± 0.19	6.624 ± 0.072
303.15 K, x1 = 0.7989	992.685 ± 0.18	11.3 ± 0.12
303.15 K, x1 = 0.8998	1018 ± 0.19	19.67 ± 0.21
303.15 K, x1 = 1	1046.64 ± 0.19	33.56 ± 0.36
308.15 K, x1 = 0.1052	813.976 ± 0.21	0.4633 ± 0.0068
308.15 K, x1 = 0.2004	836.391 ± 0.2	0.6247 ± 0.0083
308.15 K, x1 = 0.3002	860.732 ± 0.2	0.8841 ± 0.011
308.15 K, x1 = 0.4003	886.382 ± 0.2	1.379 ± 0.016
308.15 K, x1 = 0.4999	912.346 ± 0.2	2.141 ± 0.024
308.15 K, x1 = 0.5992	938.196 ± 0.19	3.447 ± 0.038
308.15 K, x1 = 0.6992	964.512 ± 0.19	5.663 ± 0.062
308.15 K, x1 = 0.7989	989.056 ± 0.18	9.517 ± 0.1
308.15 K, x1 = 0.8998	1014.59 ± 0.19	16.21 ± 0.18
308.15 K, x1 = 1	1043.5 ± 0.18	27.15 ± 0.29
313.15 K, x1 = 0.1052	808.832 ± 0.21	0.4382 ± 0.0066
313.15 K, x1 = 0.2004	831.418 ± 0.21	0.5847 ± 0.008
313.15 K, x1 = 0.3002	855.978 ± 0.2	0.8163 ± 0.01
313.15 K, x1 = 0.4003	881.838 ± 0.2	1.237 ± 0.015
313.15 K, x1 = 0.4999	908.015 ± 0.2	1.909 ± 0.022
313.15 K, x1 = 0.5992	934.073 ± 0.19	3.025 ± 0.034
313.15 K, x1 = 0.6992	960.613 ± 0.19	4.879 ± 0.053
313.15 K, x1 = 0.7989	985.317 ± 0.18	8.064 ± 0.088
313.15 K, x1 = 0.8998	1011.06 ± 0.19	13.49 ± 0.15
313.15 K, x1 = 1	1040.35 ± 0.18	22.22 ± 0.24
318.15 K, x1 = 0.1052	803.661 ± 0.21	0.4141 ± 0.0064
318.15 K, x1 = 0.2004	826.427 ± 0.21	0.548 ± 0.0076
318.15 K, x1 = 0.3002	851.191 ± 0.2	0.7557 ± 0.0097
318.15 K, x1 = 0.4003	877.271 ± 0.2	1.127 ± 0.013
318.15 K, x1 = 0.4999	903.664 ± 0.2	1.711 ± 0.02
318.15 K, x1 = 0.5992	929.93 ± 0.19	2.671 ± 0.03
318.15 K, x1 = 0.6992	956.69 ± 0.19	4.237 ± 0.047
318.15 K, x1 = 0.7989	981.556 ± 0.19	6.885 ± 0.075
318.15 K, x1 = 0.8998	1007.51 ± 0.19	11.33 ± 0.12
318.15 K, x1 = 1	1037.18 ± 0.18	18.35 ± 0.2
323.15 K, x1 = 0.1052	798.453 ± 0.21	0.3908 ± 0.0062
323.15 K, x1 = 0.2004	821.409 ± 0.21	0.5165 ± 0.0073
323.15 K, x1 = 0.3002	846.386 ± 0.2	0.7008 ± 0.0091
323.15 K, x1 = 0.4003	872.674 ± 0.2	1.03 ± 0.013
323.15 K, x1 = 0.4999	899.282 ± 0.2	1.542 ± 0.018
323.15 K, x1 = 0.5992	925.759 ± 0.19	2.372 ± 0.027
323.15 K, x1 = 0.6992	952.744 ± 0.19	3.702 ± 0.041
323.15 K, x1 = 0.7989	977.808 ± 0.19	5.939 ± 0.065
323.15 K, x1 = 0.8998	1004.01 ± 0.19	9.603 ± 0.1
323.15 K, x1 = 1	1033.98 ± 0.18	15.29 ± 0.17
328.15 K, x1 = 0.1052	793.206 ± 0.21	0.3682 ± 0.0059
328.15 K, x1 = 0.2004	816.363 ± 0.21	0.484 ± 0.007
328.15 K, x1 = 0.3002	841.54 ± 0.2	0.6507 ± 0.0086
328.15 K, x1 = 0.4003	868.041 ± 0.2	0.9438 ± 0.012
328.15 K, x1 = 0.4999	894.87 ± 0.2	1.393 ± 0.016
328.15 K, x1 = 0.5992	921.56 ± 0.19	2.121 ± 0.024
328.15 K, x1 = 0.6992	948.774 ± 0.19	3.257 ± 0.036
328.15 K, x1 = 0.7989	974.119 ± 0.19	5.165 ± 0.056
328.15 K, x1 = 0.8998	1000.59 ± 0.18	8.217 ± 0.089
328.15 K, x1 = 1	1030.77 ± 0.18	12.84 ± 0.14
333.15 K, x1 = 0.1052	787.917 ± 0.21	0.3461 ± 0.0058
333.15 K, x1 = 0.2004	811.298 ± 0.21	0.4456 ± 0.0066
333.15 K, x1 = 0.3002	836.659 ± 0.21	0.6058 ± 0.0082
333.15 K, x1 = 0.4003	863.375 ± 0.2	0.8671 ± 0.011
333.15 K, x1 = 0.4999	890.43 ± 0.2	1.271 ± 0.015
333.15 K, x1 = 0.5992	917.332 ± 0.2	1.911 ± 0.022
333.15 K, x1 = 0.6992	944.777 ± 0.19	2.894 ± 0.032
333.15 K, x1 = 0.7989	970.698 ± 0.19	4.581 ± 0.05
333.15 K, x1 = 0.8998	997.503 ± 0.18	7.128 ± 0.077
333.15 K, x1 = 1	1027.53 ± 0.18	10.96 ± 0.12
